By AC50 is commonly meant the concentration giving half of the maximal activity seen. By EC50 is commonly meant the concentration needed to bring the measured effect to its halfway point. By IC50 is commonly meant the point on the concentration scale where inhibition reaches its midpoint. What is called CC50 is the concentration at which the toxic effect on the cells reaches its halfway point.

Assay [1] can be described thus: growth inhibition of yeast DHODH-expressing 3D7 parasites – SYBR Green, dry powder samples, dose response (AID 1159570).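 Note: parasite growth measured after 72 hours of compound exposure.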 In kind it is functional, cell-based.
Assay [2] can be described thus: toxicity to human HepG2 hepatoma cells – cell-based, plate reader, dry powder samples, cytotoxicity control, dose response (AID 1159569).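 Note: inhibitor potency with signal falling toward the positive control level.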 In kind it is functional.
The nature of assay [3]: Dd2 malaria parasite growth inhibition potency – SYBR Green, dry powder samples, dose response (AID 1159566).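 Note: potency for growth inhibition with lower SYBR green DNA signal.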 The class given is functional, cell-based.
Assay [4] can be described thus: growth inhibition of PfATP4-mutant resistant parasites – NITD609-resistant line, SYBR Green, dry powder, dose response (AID 1159571).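 Note: parasites synchronized at ring stage by sorbitol before testing.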 In kind it is functional, cell-based.
The nature of assay [5]: P. falciparum Dd2 growth inhibitors, dose response, SYBR Green, cherry-picked samples (AID 1159567). The class given is functional, cell-based.
Assay [6] in a line: toxicity to human hepatoma HepG2 cells – cell-based, cherry-picked samples, cytotoxicity control, dose response (AID 1159577). In kind it is functional.
The target of the next assay is Transthyretin (Homo sapiens, UniProt P02766). In words: Luminescence-based cell-based high throughput dose response assay to identify activators of Transthyretin (TTR) transcription. In kind it is functional.
The target of assay [7] is T1, Low molecular weight phosphotyrosine protein phosphatase (Homo sapiens, UniProt P24666).
T1 sequence (P24666 whole entry): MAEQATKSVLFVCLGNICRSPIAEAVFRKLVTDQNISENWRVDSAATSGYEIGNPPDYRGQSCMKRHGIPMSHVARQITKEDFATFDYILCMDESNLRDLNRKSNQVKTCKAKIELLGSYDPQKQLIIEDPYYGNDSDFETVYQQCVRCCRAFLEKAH
Briefly: inhibition of LMPTP-A enzymatic activity – biochemical, OMFP substrate, fluorescence intensity, set 2, dose response (AID 743307). The class given is functional.

Assay [8] addresses T1, Low molecular weight phosphotyrosine protein phosphatase. Briefly: inhibition of human LMPTP enzyme activity – biochemical, absorbance, pNPP substrate, LMPTP-A isoform, set 2, orthogonal assay, dose response (AID 743308). The class given is functional.
Assay [9] in a line: BioA aminotransferase inhibition, coupled fluorescent readout – biochemical, coupled fluorescence displacement, 20-point, dry powder, dose response (AID 743357). In kind it is functional.
The target of another assay is Protein Tat (Human immunodeficiency virus type 1 group M subtype B (isolate HXB2)(HIV-1), UniProt P04608). The class given is functional.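 Note: tat binding to TAR RNA read out by fluorescence polarization.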
Assay [10] in a line: viability loss in THP-1 monocytes – THP-1 cells, cytotoxicity control for Vif-APOBEC3G degradation inhibitor project, dose response (AID 1117359). The settings on record: THP-1. The class given is functional.
Assay [11] concerns the target T2, Carboxy-terminal domain RNA polymerase II polypeptide A small phosphatase 1 (Homo sapiens, UniProt Q9GZU7).
T2 sequence (Q9GZU7 whole entry): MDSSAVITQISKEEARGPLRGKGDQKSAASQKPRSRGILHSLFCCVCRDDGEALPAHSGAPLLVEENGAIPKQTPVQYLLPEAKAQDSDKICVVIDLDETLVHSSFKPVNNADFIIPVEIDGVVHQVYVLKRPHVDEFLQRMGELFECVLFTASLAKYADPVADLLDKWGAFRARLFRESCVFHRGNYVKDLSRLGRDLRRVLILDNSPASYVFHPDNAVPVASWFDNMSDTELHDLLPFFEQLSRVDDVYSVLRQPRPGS
Briefly: CTDSP1 inhibitors, concentration-response, biochemical, absorbance readout, ultra-high-throughput screen actives (AID 540297). The class given is functional.

Assay [12] can be described thus: viability loss in Vero cells – cytotoxicity control for Vif-APOBEC3G degradation inhibitor project, dose response (AID 1117358). The class given is functional. The settings on record: Vero.

Calls of active or inactive are those of the source. Bounds are passed on as bounds.

Protein Tat, sequence (P04608 whole entry): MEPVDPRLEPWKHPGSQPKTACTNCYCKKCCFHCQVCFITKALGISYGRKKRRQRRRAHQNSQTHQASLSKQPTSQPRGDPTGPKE

In the case of `Cc1nc(N2[C@H](CO)[C@H](c3ccccc3)[C@H]2CNCC2CCC2)sc1C`, the AC50 was 1.47 µM (active) in assay [1]; > 100 µM (inactive) in [2]; 0.881 µM (active) in assay [3]; 1.34 µM (active) in [4]; 1.8 µM (active) in assay [5]; 29.3 µM (active) in assay [6].
Consider `CC1CN(Cc2ccccc2)c2nc3c(c(=O)n(CC(N)=O)c(=O)n3C)n2C1` (centres undefined), for which the EC50 at Transthyretin is > 167 µM (inactive).
In the case of `CN1CCN(c2nc(-c3ccccc3)nc3ccccc23)CC1`, the IC50 in assay [7] and in assay [8] was > 80 µM (inactive) in each case.
With `CC(=O)c1ccc(N2CCN(C(=O)c3cc(Cl)c4c(c3)OCO4)CC2)cc1`, the AC50 in assay [9] is 12.2 µM (active).
Consider `CN(CC(=O)Nc1ccc(F)cc1)C(=O)c1cc(-c2ccco2)nc2ccccc12`, for which the results for the IC50 (on Protein Tat; in assay [11]) were > 100 µM (active) and 5.11 µM (active), respectively. Moreover, the CC50 in assay [10] is > 40 µM (active).
Consider `COc1cc(C(=O)NCc2nnc(SCC(=O)Nc3nc4ccc(C)cc4s3)o2)cc(OC)c1OC`, for which the CC50 in assay [12] was > 40 µM (active).
